From patent US7855228B2, “Antibiotics targeting MreB” (The Board of Trustees of the Leland Stamford Junior …, priority 2005, dated 2010)
≈ marks a conversion by molar mass, not a printed value. Entries after “also recorded” stand apart in the source; their conditions may differ. Where two headings read alike, the source gives them in different places.

How the values were obtained:
P. putida NBRC14164 = assay: Determination of minimum inhibitory concentration (MIC); assay type: cell-based, Pseudomonas putida; details: Pseudomonas putida, read-out: MIC P. putida
How it was run: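 Two-fold serial agar dilution on L agar and also on Mueller Hinton agar (pH 7.3); 10 µl of stationary-phase culture diluted in 0.85% NaCl to 10^6 cells/ml spotted per plate. MIC taken as lowest concentration inhibiting growth.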

[1] = test system: Caulobacter chromosomal loci (origin, origin-distal loci); assay: Chromosome segregation of FROS-labeled loci; assay type: cell-based, Caulobacter crescentus
Excerpt: A22 Treatment Blocks Chromosome Segregation. Having established that A22 targets MreB and rapidly disrupts its localization, we used A22 to assess the acute role of MreB in chromosome segregation. To this end we took advantage of strains previously generated in our group that use the fluorescent repressor-operator system (FROS) to simultaneously label two specific chromosomal loci in the same living cell. This system uses fusions of two DNA binding proteins, the lac repressor (LacI) and the Tet repressor (tetR), to CFP and YFP, respectively. Two arrays, each containing multiple tandem repeats of either the LacI or TetR binding sites, are integrated into different chromosomal loci. Each fusion protein clusters at its respective array, causing the cellular address of that array to fluoresce in a detectable fashion.
Synchronized swarmer cells with lac arrays at the origin locus and tet arrays at the midcell-positioned CC2943 locus (FIG. 5A) were incubated with 10 μg/ml A22. After varying periods of time in the presence of A22, the cellular positions of the origin and CC2943 were examined by fluorescence microscopy. The cultures continued to increase in cell mass, as measured by an increase in optical density, but cell division was blocked. […] This effect was reversible, since upon washing out the A22 drug, the origins were rapidly and normally segregated.
Treatment of swarmer cells with A22 before the origins have segregated blocks the movement of chromosomal loci. […]
Though origin-distal loci can separate in the presence of A22, MreB could still partially contribute to their cellular positioning and rate of movement across the cell. Technical considerations prevent the quantitative analysis of locus movement in doubly labeled cells. Thus, to quantitatively assess the role of MreB in origin-distal locus segregation, we examined two singly labeled strains, one with CC0786 marked at 860 kb to the right of the origin, and one with CC3192 marked at 576 kb to the left of the origin. […] The timelapses were analyzed using automated software that provides the absolute position of each locus in each cell. […]
Microscopy and Timelapse Imaging. […] The rates of origin-distal locus segregation were determined by inducing PxyI:lacI:cfp expression with 0.03% xylose for 75 min, isolating swarmer cells, and growing the swarmer cells in M2G liquid medium for 50 min. After 50 min, 10 μg/ml of A22 was added to these liquid cultures, they were mounted onto 1% M2G agarose pads containing 10 μg/ml A22, and a phase and CFP fluorescence image was captured every 2 min for 60 min. The images were analyzed by previously described software to determine the average position and rate of movement of the observed foci.

E. coli JE1011, JST975 = assay: Paper disk growth inhibitory zone; assay type: cell-based; details: paper disk φ 8 mm, 200 μg of A22, 24 h, 37° C.
Procedure: Isolation of A22-resistant mutant Our strategy for identifying the molecular target(s) of A22 involved isolating resistant mutants which grow in the presence of concentrations of A22 that inhibit growth of the parent strain. After 24 h incubation at 37° C., E. coli strains such as JE1011 formed a turbid growth inhibitory zone (φ 12 mm) around a paper disk (φ 8 mm) containing 200 μg of A22. To identify a more suitable parent strain for our selection, we screened for a more drug-sensitive strain that would form clear growth inhibitory zones under similar incubation conditions.
Bacterial strains used E. coli K-12 strains JE1011 (F^− leuB thr trp his thy ara lac xyl mtl rpsL tonA), JST975 (the same as JE1011 but ponB) (Tamaki et al. 1977), W3110 (wild-type), MG1655 (wild-type), DV14 (F^− metB1 panD2 panF1 zhc-12::Tn10) (Vallari & Rock 1985), CAG12149 (F^− zbd-601::Tn10) (Singer et al. 1989), AT1325-678 (F^− lip-9 thi-1 his-4 purB15 proA2 mtl-1 Δmre678) (Wachi et al. 1987) and JM109 [recA1 endA1 gyrA96 thi-1 hsdR17 Δ(lac-proAB) supE44 relA1 F′ (traD36 proAB^+ lacI^q lacZΔM15)] (Yanisch-Perron et al. 1985) were used in this study. Cells were grown in Lennox (L) medium (1% Bactopeptone, 0.5% yeast extracts, 0.5% NaCl, 0.1% glucose, pH 7.2, supplemented with 20 μg/ml thymine). For the growth of AT1325-678, 0.1 μg/ml lipoic acid was supplemented. […]

## N=C(N)SCc1ccc(Cl)c(Cl)c1 [Compound 1, S-(3,4-dichlorobenzyl)isothiourea]
P. putida NBRC14164; NBRC14164, Example 2, methods as in Example 1
  MIC: 100 mg/L (≈ 425 µM)
P. putida NBRC14164; NBRC14164, Table 1, NBRC14164
  MIC: 100 mg/L (≈ 425 µM)
[1]; 10 μg/ml
  Origin segregation in cells with T158A A22-resistant mreB allele: successfully segregated
[1]; 10 μg/ml added after 50 min, timelapse 60 min
  Locus position and rate of segregation of CC0786 and CC3192: unaffected
[1]; 10 μg/ml added to synchronized swarmer cells, 30-180 min
  Foci of origin and CC2943 loci in swarmer cells: only one focus for each locus
[1]; A22 added after origin segregation (30 min), listed as A22
  Separation of origin-distal loci (CC2943, CC3300, CC3656, CC0091): proceeded to replicate and separate their CC2943 locus into two foci; also recorded: duplicated and separated in the presence of A22
E. coli JE1011, JST975; JE1011
  Growth inhibitory zone (turbid): 12 mm
E. coli JE1011, JST975; JST975 (ponB)
  Growth inhibitory zone (clear): 32 mm
